For this assay, the system named is Human alphaherpesvirus 1. Description: Antiviral activity against various strains of Herpes Simplex virus type I. Type of assay: functional. The settings on record: read-out: ID50 (the source's name).

In brackets after ≈: the same amount, converted by molar mass.

In the case of `O=c1[nH]c(=O)n([C@H]2C[C@H](O)[C@@H](CO)O2)cc1/C(F)=C(\F)Cl.O=c1[nH]c(=O)n([C@H]2C[C@H](O)[C@@H](CO)O2)cc1C(F)=C(Cl)Cl`, the IC50 is 24 µg/mL.

On to `O=c1[nH]c(=O)n([C@H]2C[C@H](O)[C@@H](CO)O2)cc1C(F)=C(Cl)Cl`, for which the IC50 stood at 26 µg/mL (≈ 76.2 µM). To `Nc1nc2c(ncn2COCCO)c(=O)[nH]1` [ACYCLOVIR] belongs 0.8 µg/mL (≈ 3.55 µM); to `Nc1ncnc2c1ncn2[C@@H]1O[C@H](CO)[C@@H](O)[C@H]1O` [ADENOSINE], 21 µg/mL (≈ 78.6 µM); to `O=c1[nH]c(=O)n([C@H]2C[C@H](O)[C@@H](CO)O2)cc1/C=C/Br` [BRIVUDINE], 0.07 µg/mL (≈ 0.21 µM). As for `O=c1[nH]c(=O)n([C@H]2C[C@H](O)[C@@H](CO)O2)cc1I` [IDOXURIDINE], the figure is 4.4 µg/mL (≈ 12.4 µM).

The values above are taken from ChEMBL document CHEMBL1121969, “Synthesis and antiviral properties of some 2'-deoxy-5-(fluoroalkenyl)uridines” (1982).
